Test results as given in patent publication US9000162B2, “5,8-difluoro-4-(2-(4-(heteroaryloxy)-phenyl)ethylamino)quinazolines and their use as agrochemicals” (Dow AgroSciences LLC, priority 2008, dated 2015).

Tests used:
Assay type in all cases: in vivo
[1] = test system: Pseudoperonospora cubensis (PSPECU); test: Cucumber downy mildew foliar protectant test; conditions: 200 ppm foliar, inoculated one day after treatment, read-out: Activity against fungal diseases PSPECU
Experimental: The plants were inoculated with the fungus one day after treatment. ***=80-100% control; **=50-79% control; *=0-49% control. It will be understood by those in the art that the efficacy of the compounds against the foregoing fungi establishes the general utility of the compounds as fungicides. The activity of the compounds as effective fungicides was determined by applying the compounds to plants and observing control of fungal disease. […] All plants were inoculated with spores of the fungus the day after treatment, then incubated in an environment conducive to disease development. Disease severity was evaluated 4 to 25 days later, depending on the speed of disease development. The following experiments were performed in the laboratory to determine the fungicidal efficacy of the compounds of the invention. Cucumber Downy Mildew (Causal Agent Pseudoperonospora cubensis; Bayer Code […]): Cucumber plants (variety “Bush Champion' or 'Bush Pickle Hybrid') were grown from seed in a soil-less peat-based potting mixture (Metromix) until the first true leaf was 20-80% expanded. Each pot contained 1 seedling. These plants were sprayed until wet with the formulated test compound. On the following day, the leaves were inoculated with an aqueous suspension of downy mildew sporangia and the plants were kept in high humidity for one day to permit sporangia to germinate and infect the leaf. The plants were then incubated in a growth chamber until disease developed on untreated control plants. Table 1 presents the activity of typical compounds of the present invention when evaluated in these experiments. The effectiveness of the test compounds at controlling disease when sprayed on leaves was determined by assessing the severity of disease on treated plants, then converting the severity to percent control based on the level of disease on untreated, inoculated plants.

[2] = test system: Puccinia recondita tritici (PUCCRT); test: Leaf rust of wheat foliar protectant test; conditions: 200 ppm foliar, inoculated one day after treatment, read-out: Activity against fungal diseases PUCCRT
Experimental: (§1) The plants were inoculated with the fungus one day after treatment. ***=80-100% control; **=50-79% control; *=0-49% control. It will be understood by those in the art that the efficacy of the compounds against the foregoing fungi establishes the general utility of the compounds as fungicides. The activity of the compounds as effective fungicides was determined by applying the compounds to plants and observing control of fungal disease. […] All plants were inoculated with spores of the fungus the day after treatment, then incubated in an environment conducive to disease development. Disease severity was evaluated 4 to 25 days later, depending on the speed of disease development. The following experiments were performed in the laboratory to determine the fungicidal efficacy of the compounds of the invention. […] Each pot contained 3-8 seedlings. These plants were sprayed until wet with the formulated test compounds. On the following day, the leaves were inoculated with an aqueous spore suspension of Puccinia recondita tritici and the plants were kept in high humidity overnight to permit spores to germinate and infect the leaf. The plants were then transferred to a greenhouse until disease developed on untreated control plants. Table 1 presents the activity of typical compounds of the present invention when evaluated in these experiments. The effectiveness of the test compounds at controlling disease when sprayed on leaves was determined by assessing the severity of disease on treated plants, then converting the severity to percent control based on the level of disease on untreated, inoculated plants.

[3] = test system: Septoria tritici (SEPTTR); test: Septoria blotch of wheat foliar protectant test; conditions: Zymoseptoria tritici, read-out: Activity against fungal diseases SEPTTR; for pest or weed control at 25 ppm: foliar, Tested at 25 ppm (footnote b); for pest or weed control at 200 ppm: 200 ppm foliar, inoculated one day after treatment
Experimental: as §1, with “3-10” for “3-8”, “compound.” for “compounds.”, “Septoria” for “Puccinia recondita”, “(one day in a dark dew chamber followed by three days in a lighted dew chamber)” for “overnight”

[4] = test system: Magnaporthe grisea = Pyricularia oryzae (PYRIOR); test: whole plant or invertebrate; conditions: foliar, read-out: Activity against fungal diseases PYRIOR

Compound: N#Cc1cc(CCNc2ncnc3c(F)ccc(F)c23)ccc1Oc1cc(C(F)(F)F)ccn1 [Compound 41]
- pest or weed control at 200 ppm [1]: 80 to 100%
- pest or weed control at 200 ppm [2]: 80 to 100%
- pest or weed control at 25 ppm [3]: 50 to 79%
- pest or weed control at 200 ppm [4]: 80 to 100%

Compound: Cc1cc(CCNc2ncnc3c(F)ccc(F)c23)ccc1Oc1cc(C(F)(F)F)cc[n+]1[O-] [Compound 61]
- pest or weed control at 200 ppm [1]: 80 to 100%
- pest or weed control at 200 ppm [2]: 80 to 100%
- pest or weed control at 200 ppm [3]: 80 to 100%
- pest or weed control at 200 ppm [4]: 50 to 79%

Compound: Cc1cc(CCNc2ncnc3c(F)ccc(F)c23)ccc1O [Compound 24]
- pest or weed control at 200 ppm [1]: 0 to 49%
- pest or weed control at 200 ppm [2]: 0 to 49%
- pest or weed control at 200 ppm [3]: 0 to 49%
- pest or weed control at 200 ppm [4]: 0 to 49%

Compound: Fc1cc(C(F)(F)F)cnc1Oc1ccc(CCNc2ncnc3c(F)ccc(F)c23)cc1 [Compound 5]
- pest or weed control at 200 ppm [1]: 80 to 100%
- pest or weed control at 200 ppm [2]: 80 to 100%
- pest or weed control at 25 ppm [3]: 80 to 100%
- pest or weed control at 200 ppm [4]: 80 to 100%

Compound: Fc1cc(CCNc2ncnc3c(F)cc(F)c(F)c23)ccc1Oc1cc(C(F)(F)F)ccn1 [Compound 67]
- pest or weed control at 200 ppm [1]: 80 to 100%
- pest or weed control at 200 ppm [2]: 80 to 100%
- pest or weed control at 200 ppm [3]: 80 to 100%
- pest or weed control at 200 ppm [4]: 80 to 100%

Compound: Cc1c(CCNc2ncnc3c(F)ccc(F)c23)ccc(Oc2cc(C(F)(F)F)ccn2)c1C [Compound 26]
- pest or weed control at 200 ppm [1]: 80 to 100%
- pest or weed control at 200 ppm [2]: 80 to 100%
- pest or weed control at 200 ppm [3]: 80 to 100%
- pest or weed control at 200 ppm [4]: 50 to 79%

Compound: Fc1ccc(F)c2c(NCCOc3ccc(Oc4cc(C(F)(F)F)ccn4)cc3)ncnc12 [Compound 8]
- pest or weed control at 200 ppm [1]: 80 to 100%
- pest or weed control at 200 ppm [2]: 80 to 100%
- pest or weed control at 200 ppm [3]: 50 to 79%
- pest or weed control at 200 ppm [4]: 80 to 100%

Compound: Nc1c(F)c(F)nc(Oc2ccc(CCNc3ncnc4c(F)ccc(F)c34)cc2)c1F [Compound 97]
- pest or weed control at 200 ppm [1]: 80 to 100%
- pest or weed control at 200 ppm [2]: 80 to 100%
- pest or weed control at 200 ppm [3]: 50 to 79%
- pest or weed control at 200 ppm [4]: 80 to 100%

Compound: N#Cc1ccnc(Oc2ccc(CCNc3ncnc4c(F)ccc(F)c34)cc2)c1 [Compound 2]
- pest or weed control at 200 ppm [1]: 80 to 100%
- pest or weed control at 200 ppm [2]: 80 to 100%
- pest or weed control at 200 ppm [3]: 0 to 49%
- pest or weed control at 200 ppm [4]: 80 to 100%

Compound: Fc1cc(CCNc2ncnc3c(F)ccc(F)c23)ccc1Oc1ncc(C(F)(F)F)cc1F [Compound 131]
- pest or weed control at 200 ppm [1]: 80 to 100%
- pest or weed control at 200 ppm [2]: 80 to 100%
- pest or weed control at 200 ppm [3]: 80 to 100%
- pest or weed control at 200 ppm [4]: 80 to 100%

Compound: COc1cc(C)c(CCNc2ncnc3c(F)ccc(F)c23)cc1C [Compound 17]
- pest or weed control at 200 ppm [1]: 80 to 100%
- pest or weed control at 200 ppm [2]: 80 to 100%
- pest or weed control at 200 ppm [3]: 0 to 49%
- pest or weed control at 200 ppm [4]: 50 to 79%

Compound: N#Cc1cc(Oc2ccc(CCNc3ncnc4c(F)ccc(F)c34)cc2)ncc1Cl [Compound 126]
- pest or weed control at 200 ppm [1]: 80 to 100%
- pest or weed control at 200 ppm [2]: 80 to 100%
- pest or weed control at 25 ppm [3]: 80 to 100%
- pest or weed control at 200 ppm [4]: 80 to 100%

Compound: Cc1cc(CCNc2ncnc3c(F)ccc(F)c23)c(C)cc1O [Compound 18]
- pest or weed control at 200 ppm [1]: 0 to 49%
- pest or weed control at 200 ppm [2]: 50 to 79%
- pest or weed control at 200 ppm [3]: 0 to 49%
- pest or weed control at 200 ppm [4]: 0 to 49%

Compound: COc1ccc(CCNc2ncnc3c(F)ccc(F)c23)cc1F [Compound 46]
- pest or weed control at 200 ppm [1]: 80 to 100%
- pest or weed control at 200 ppm [2]: 80 to 100%
- pest or weed control at 200 ppm [3]: 0 to 49%
- pest or weed control at 200 ppm [4]: 0 to 49%

Compound: COc1cc(C(F)(F)F)cc(Oc2ccc(CCNc3ncnc4c(F)ccc(F)c34)c(C)c2C)n1 [Compound 30]
- pest or weed control at 200 ppm [1]: 50 to 79%
- pest or weed control at 200 ppm [2]: 80 to 100%
- pest or weed control at 200 ppm [3]: 0 to 49%
- pest or weed control at 200 ppm [4]: 50 to 79%

Compound: COc1cc(CCNc2ncnc3c(F)ccc(F)c23)ccc1Oc1cc(C(F)(F)F)ncn1 [Compound 112]
- pest or weed control at 200 ppm [1]: 80 to 100%
- pest or weed control at 200 ppm [2]: 80 to 100%
- pest or weed control at 25 ppm [3]: 80 to 100%
- pest or weed control at 200 ppm [4]: 80 to 100%

Compound: Fc1cc(CCNc2ncnc3c(F)ccc(F)c23)ccc1Oc1cc(C(F)(F)F)ccn1 [Compound 49]
- pest or weed control at 200 ppm [1]: 80 to 100%
- pest or weed control at 200 ppm [2]: 80 to 100%
- pest or weed control at 200 ppm [3]: 80 to 100%
- pest or weed control at 200 ppm [4]: 80 to 100%

Compound: COc1cc(CCNc2ncnc3c(F)ccc(F)c23)ccc1Oc1nc(F)c(F)c(N)c1F [Compound 98]
- pest or weed control at 200 ppm [1]: 80 to 100%
- pest or weed control at 200 ppm [2]: 80 to 100%
- pest or weed control at 200 ppm [3]: 0 to 49%
- pest or weed control at 200 ppm [4]: 80 to 100%

Compound: COc1cc(CCNc2ncnc3c(F)ccc(F)c23)ccc1Oc1ccnc(C(F)(F)F)c1 [Compound 77]
- pest or weed control at 200 ppm [1]: 80 to 100%
- pest or weed control at 200 ppm [2]: 80 to 100%
- pest or weed control at 200 ppm [3]: 80 to 100%
- pest or weed control at 200 ppm [4]: 80 to 100%

Compound: COc1cc(CCNc2ncnc3c(F)ccc(F)c23)ccc1Oc1cc(C(F)(F)F)cc(C)n1 [Compound 44]
- pest or weed control at 200 ppm [1]: 80 to 100%
- pest or weed control at 200 ppm [2]: 80 to 100%
- pest or weed control at 200 ppm [3]: 80 to 100%
- pest or weed control at 200 ppm [4]: 0 to 49%

Compound: COc1cc(CCNc2ncnc3c(F)ccc(F)c23)ccc1Oc1ccnc(C(F)(F)F)c1Cl [Compound 78]
- pest or weed control at 200 ppm [1]: 80 to 100%
- pest or weed control at 200 ppm [2]: 80 to 100%
- pest or weed control at 200 ppm [3]: 80 to 100%
- pest or weed control at 200 ppm [4]: 80 to 100%

Compound: Fc1cc(CCNc2ncnc3c(F)ccc(F)c23)ccc1Oc1ccc(C(F)(F)F)cn1 [Compound 130]
- pest or weed control at 200 ppm [1]: 80 to 100%
- pest or weed control at 200 ppm [2]: 80 to 100%
- pest or weed control at 200 ppm [3]: 80 to 100%
- pest or weed control at 200 ppm [4]: 80 to 100%

Compound: COc1cc(CCNc2ncnc3c(F)ccc(F)c23)ccc1Oc1cc(C(C)(F)F)ccn1 [Compound 16]
- pest or weed control at 200 ppm [1]: 80 to 100%
- pest or weed control at 200 ppm [2]: 80 to 100%
- pest or weed control at 200 ppm [3]: 80 to 100%
- pest or weed control at 200 ppm [4]: 80 to 100%

Compound: Fc1ccc(F)c2c(NCCc3ccc(Oc4cc(C(F)(F)F)ccn4)c(Cl)c3)ncnc12 [Compound 90]
- pest or weed control at 200 ppm [1]: 80 to 100%
- pest or weed control at 200 ppm [2]: 80 to 100%
- pest or weed control at 200 ppm [3]: 80 to 100%
- pest or weed control at 200 ppm [4]: 80 to 100%

Compound: Cc1c(O)ccc(CCNc2ncnc3c(F)ccc(F)c23)c1C [Compound 23]
- pest or weed control at 200 ppm [1]: 80 to 100%
- pest or weed control at 200 ppm [2]: 50 to 79%
- pest or weed control at 200 ppm [3]: 0 to 49%
- pest or weed control at 200 ppm [4]: 50 to 79%

Compound: Cc1cc(CCNc2ncnc3c(F)ccc(F)c23)ccc1Oc1cc(C(F)(F)F)ncn1 [Compound 117]
- pest or weed control at 200 ppm [1]: 80 to 100%
- pest or weed control at 200 ppm [2]: 80 to 100%
- pest or weed control at 25 ppm [3]: 80 to 100%
- pest or weed control at 200 ppm [4]: 80 to 100%

Compound: Fc1ccc(F)c2c(NCCc3ccc(Oc4cnccc4C(F)(F)F)c(Cl)c3)ncnc12 [Compound 91]
- pest or weed control at 200 ppm [1]: 80 to 100%
- pest or weed control at 200 ppm [2]: 80 to 100%
- pest or weed control at 200 ppm [3]: 80 to 100%
- pest or weed control at 200 ppm [4]: 80 to 100%

Compound: Fc1ccc(F)c2c(NCCc3ccc(Oc4cc(Cl)ncn4)cc3)ncnc12 [Compound 127]
- pest or weed control at 200 ppm [1]: 80 to 100%
- pest or weed control at 200 ppm [2]: 80 to 100%
- pest or weed control at 200 ppm [3]: 0 to 49%
- pest or weed control at 200 ppm [4]: 80 to 100%

Compound: COc1cc(C(F)(F)F)cc(Oc2ccc(CCNc3ncnc4c(F)ccc(F)c34)cc2C)n1 [Compound 29]
- pest or weed control at 200 ppm [1]: 80 to 100%
- pest or weed control at 200 ppm [2]: 80 to 100%
- pest or weed control at 200 ppm [3]: 80 to 100%
- pest or weed control at 200 ppm [4]: 50 to 79%
